Experimental data as given in patent US20090069429A1 (SGP & SONS AB, priority 2006, published 2009).
“Also recorded” adds a separate entry of the source.

Assays:
soleus muscles = conditions: 48-h T3 subcutaneously; 90 Hz continuous stimulation; cited from earlier work
muscle = assay: Muscle performance after oral AKG (general conclusions); type: in vivo, rat
Description: (§1) Animals were kept in a thermostatically controlled chamber, containing the equipment to measure contractile force in isolated rat skeletal muscle, i.e. a computer, analogue-digital transducer, amplifier, differential amplifier, stimulator, […] and 5% carbon dioxide.
(§2) Thermostatically controlled chamber, maintained at 30° C., contained a glass diffuser for efficient oxygenation of buffer, a mounting/stimulation block with 2 pins to fix portion of fibula in place and 2 silver stimulating electrodes.

[1] = system: slow-twitch soleus muscle; assay: Contractile endurance and force of isolated soleus muscle from rats given AKG, continuous electrical stimulation at 40 Hz; type: in vivo, rat
Description: FIG. 4 presents contracting characteristics of soleus muscles in uremic rats +test component (n=10), control rats+placebo (n=8), control rats+test component (n=4) incubated in Krebs Ringer physiological solution (30 min. incubation) and electrically stimulated at 40 Hz (32 mA, 1 ms, <90V).
as §1, §2

[2] = system: fast-twitch extensor digitorum longus muscle (EDL); assay: Contractile endurance and force of isolated extensor digitorum longus muscle from rats given AKG, continuous electrical stimulation at 90 Hz; type: in vivo, rat
Description: FIG. 5 presents contracting characteristics of extensor digitorum longus muscle in uremic rats+test component (n=3) and control rats+test component (n=2) incubated in Krebs Ringer solution and uremic rats+test component (n=3) incubated in Uremic Buffer (30 min.), 90 Hz, 1 ms and <90V.
as §1, §2

[3] = AKG-administered uremic rats, Krebs Ringer vs Uremic buffer incubation

SMILES: N[C@@H](Cc1cc(I)c(Oc2ccc(O)c(I)c2)c(I)c1)C(=O)O [T3, 3,5,3′-triiodothyronine]
- rate of fatigue of soleus muscle (soleus muscles): rapid rate of fatigue

SMILES: O=C(O)CCC(=O)C(=O)O [AKG, alpha-ketoglutarate]
- effect on muscle performance in terms of endurance during sustained contraction (muscle; AKG administration): beneficial effect
- peripheral fatigue during sustained contraction at normal working frequency (muscle; oral AKG): reduce
- period within which muscle function improves (muscle; oral preparation): ≤ 21 days
- endurance profile of soleus muscle (buffer effect) [1, 3]: better endurance profile
- endurance of soleus muscles ([1]; control rats given AKG vs placebo, incubated in Krebs Ringer): improves the endurance; also recorded: improved endurance
- slowing of Rate of Force Generation ([1]; slow-twitch muscles, oral treatment 21 days or less): ~130%
- Maximal Isometric Force improvement ([1]; slow-twitch muscles, oral treatment 21 days or less, vs untreated controls): 12%
- endurance performance of extensor digitorum longus muscle ([2]; AKG administered uremic rats vs placebo administered uremic rats): improved performance
- endurance profile of extensor digitorum longus muscle (buffer effect) [2, 3]: better endurance profile
- slowing of Rate of Force Generation ([2]; fast-twitch muscles, oral treatment 21 days or less): ~8.5%
- Maximal Isometric Force improvement ([2]; fast-twitch muscles, oral treatment 21 days or less, vs untreated controls): 28%
